Here are results for 13 compounds from paper PMC7382964 (Biochemical pharmacology, 2020).

For orientation: EC50 means the concentration at which the effect is half-maximal.

The target of experiment [1] is hA3AR (Homo sapiens, UniProt P0DMS8). Briefly: βarr2 recruitment bioassay. It is filed as cell-based.
Target sequence in this assay (P32121 whole entry partner, one chain of several): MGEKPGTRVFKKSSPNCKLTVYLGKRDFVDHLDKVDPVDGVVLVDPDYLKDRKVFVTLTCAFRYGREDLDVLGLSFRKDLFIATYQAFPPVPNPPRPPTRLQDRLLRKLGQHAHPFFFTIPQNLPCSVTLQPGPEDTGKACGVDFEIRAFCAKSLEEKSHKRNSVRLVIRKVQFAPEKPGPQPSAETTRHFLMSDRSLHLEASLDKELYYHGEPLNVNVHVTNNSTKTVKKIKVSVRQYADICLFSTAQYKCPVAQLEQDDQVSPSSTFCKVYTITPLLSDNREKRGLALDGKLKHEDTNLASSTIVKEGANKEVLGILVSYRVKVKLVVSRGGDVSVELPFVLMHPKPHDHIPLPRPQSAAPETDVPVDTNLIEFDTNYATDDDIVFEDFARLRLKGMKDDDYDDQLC
Experiment [2] concerns the target T1, hA3AR (Homo sapiens, UniProt P0DMS8).
T1 sequence (P0DMS8 1-318): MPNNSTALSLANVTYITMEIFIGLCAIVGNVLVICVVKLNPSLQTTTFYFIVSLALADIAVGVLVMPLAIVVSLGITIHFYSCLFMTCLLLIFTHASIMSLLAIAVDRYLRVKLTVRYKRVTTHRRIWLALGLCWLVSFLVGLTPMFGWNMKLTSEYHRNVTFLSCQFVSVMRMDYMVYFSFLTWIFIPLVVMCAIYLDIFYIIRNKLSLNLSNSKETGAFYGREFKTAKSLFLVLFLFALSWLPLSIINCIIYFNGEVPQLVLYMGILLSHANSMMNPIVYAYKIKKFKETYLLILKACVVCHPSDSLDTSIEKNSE
Put plainly: miniGαi recruitment bioassay. It is filed as cell-based.

The test system of experiment [3] is A3AR. Particulars: Gao et al.; cited from earlier work.
In experiment [4] the test system is A3AR. Particulars: Gao et al.; cited from earlier work. This is another data set of the same source.
Experiment [5] has as its target T2, cannabinoid receptor CB1 (Homo sapiens, UniProt P21554). Put plainly: βarr2 recruitment assay with CB1 cannabinoid receptor. It is filed as cell-based. Particulars: 5 μM.
In experiment [6] the target is T2, cannabinoid receptor CB1. Put plainly: miniGαi coupling assay with CB1 cannabinoid receptor. As to conditions: 5 μM. It is filed as cell-based.
Experiment [7] relates to A3AR. Particulars: cited from earlier work.
The mark [8] stands for this setting: 90 min read-out, AUC, normalized to NECA.
Where [9] appears, read: addition of 2-chloro substituent.

T2 sequence (P21554 whole entry): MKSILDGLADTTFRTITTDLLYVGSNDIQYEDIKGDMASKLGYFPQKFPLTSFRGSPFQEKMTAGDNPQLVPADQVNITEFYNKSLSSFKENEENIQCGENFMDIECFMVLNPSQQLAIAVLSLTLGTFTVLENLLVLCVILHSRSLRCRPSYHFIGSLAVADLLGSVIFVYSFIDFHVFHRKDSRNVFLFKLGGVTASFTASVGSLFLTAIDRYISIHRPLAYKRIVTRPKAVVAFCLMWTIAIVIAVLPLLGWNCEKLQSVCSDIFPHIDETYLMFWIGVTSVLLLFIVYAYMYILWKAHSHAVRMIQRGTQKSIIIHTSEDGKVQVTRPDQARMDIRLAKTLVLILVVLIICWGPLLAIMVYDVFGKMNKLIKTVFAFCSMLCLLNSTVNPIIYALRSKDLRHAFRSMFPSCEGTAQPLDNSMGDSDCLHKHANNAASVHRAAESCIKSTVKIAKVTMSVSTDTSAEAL

Turning to `CC(C)Nc1ncnc2c1ncn2[C@@H]1O[C@H](CO)[C@H](O)C1O` (stereo partly shown) [compound 10], the EC50 on hA3AR [1] (read-out: EC50, βarr2 recruitment, 90 min read-out, AUC, normalized to NECA) worked out at 0.669 µM; at hA3AR [2] (read-out: EC50, miniGαi recruitment, 90 min read-out, AUC, normalized to NECA), 0.433 µM.
With `OC[C@H]1O[C@@H](n2cnc3c(NCc4ccco4)ncnc32)[C@H](O)[C@@H]1O` [compound 14], the “EC50, βarr2 recruitment” value at hA3AR [1] (setting [8]) was “micromolar range”. In addition, the “EC50, miniGαi recruitment” value at hA3AR [2] (setting [8]) was “micromolar range”.
As for `CNC(=O)[C@H]1O[C@@H](n2cnc3c(NCc4cccc(I)c4)nc(Cl)nc32)[C@H](O)[C@@H]1O` [2-Cl-IB-MECA, 2-chloro-N^6-(3-iodobenzyl)-5′-N-methylcar-boxamidoadenosine], in the experiment with A3AR [3], the “agonist class in calcium mobilization assay” value is listed as “partial agonist”. Also, in the experiment with A3AR [4], the “agonist class in PathHunter assay for βarr2 recruitment” value is listed as “full agonist”.
In the case of `OCC1OC(n2cnc3c(NC4CCCCC4c4ccccc4)ncnc32)C(O)C1O` (stereo not shown) [compound 4], the “receptor activation signal, βarr2 bioassay” value on hA3AR [1] is recorded as “no clear activation signal”. In addition, the “receptor activation signal, miniGαi bioassay” value on hA3AR [2] is reported as “no clear activation signal”.
On to `OCC1OC(n2cnc3c(NC4CCc5ccccc54)ncnc32)C(O)C1O` (stereo not shown) [compound 17], for which the “EC50, βarr2 recruitment” value at hA3AR [1] (setting [8]) is on record as “micromolar range”. For the same compound, at hA3AR [2] (setting [8]), the “EC50, miniGαi recruitment” value was “micromolar range”.
For `OC[C@H]1O[C@@H](n2cnc3c(N[C@H]4C[C@@H]4c4ccccc4)ncnc32)[C@H](O)[C@@H]1O` [compound 1, N^6-((1S,2R)-2-phenyl-1-cyclopropyl)-adenosine], the “signal in βarr2 recruitment assay with CB1-LgBiT” value on cannabinoid receptor CB1 [5] is reported as “unable to generate a signal”. Also, on cannabinoid receptor CB1 [6], the “signal in miniGαi coupling assay with CB1-LgBiT” value is “unable to generate a signal”.
With `OCC1OC(n2cnc3c(NC(C4CC4)C4CC4)ncnc32)C(O)C1O` (stereo not shown) [compound 13], on hA3AR [1], the “receptor activation signal, βarr2 bioassay” value is “same observation”. Further, the “receptor activation signal, miniGαi bioassay” value on hA3AR [2] was “same observation”.
As to `CC(C)C(Nc1ncnc2c1ncn2C1OC(CO)C(O)C1O)C(C)C` (stereo not shown) [compound 12], at hA3AR [1], the “receptor activation signal, βarr2 bioassay” value was “could not be measured”. The “receptor activation signal, miniGαi bioassay” value at hA3AR [2] was “could not be measured”.
Turning to `OCC1OC(n2cnc3c(NCc4cccs4)ncnc32)C(O)C1O` (stereo not shown) [compound 15], the “EC50, βarr2 recruitment” value at hA3AR [1] (setting [8]) is listed as “micromolar range”. Besides, the “EC50, miniGαi recruitment” value at hA3AR [2] (setting [8]) is “micromolar range”.
Consider `OCC1OC(n2cnc3c(NC4CC4c4ccccc4)ncnc32)C(O)C1O` (stereo not shown) [compound 2], for which the “fold reduction in potency versus compound 1, βarr2” value on hA3AR [1] (inversion to 1R,2S orientation) came to 40 fold. Also, the “fold reduction in potency versus compound 1, miniGαi” value at hA3AR [2] (inversion to 1R,2S orientation) is reported as approximately 100 fold.
As to `OC[C@H]1O[C@@H](n2cnc3c(NCC(c4ccccc4)c4ccccc4)ncnc32)[C@H](O)[C@@H]1O` [compound 19], the “functional class in the cAMP pathway” value with A3AR [7] (Tchilibon et al.) is “antagonist”.
As for `CC(Cc1ccccc1)Nc1nc(Cl)nc2c1ncn2C1OC(CO)C(O)C1O` (stereo not shown) [compound 9], the “fold increased potency versus compound 8, βarr2” value on hA3AR [1] (setting [9]) is reported as “approximately five”. For the same compound, the “fold increased potency versus compound 8, miniGαi” value at hA3AR [2] (setting [9]) is given as “approximately five”.
Consider `CNC(=O)[C@H]1O[C@@H](n2cnc3c(NCc4cccc(I)c4)ncnc32)[C@H](O)[C@@H]1O` [IB-MECA], for which the “Emax, cAMP assay” value in the experiment on A3AR [7] (previously reported) was […]. Further, the EC50 with A3AR [7] (read-out: EC50, cAMP assay, previously reported) was […].
